# Activity calls are given as the source filed them. The rule behind the calls is not given here.
# Experiments:
# [1] = system: Panel NCI-60 (60 carcinoma cell lines); assay: Cytotoxicity against human NCI60 cells by SRB assay; assay type: functional, cell-based
# [2] = system: BT-474; assay: Induction of apoptosis in human BT-474 cells assessed as early apoptotic cells at 1 uM incubated for 24 hrs by annexin-V/FITC-PI staining assay (reference value: 9.44%); assay type: functional
# [3] = system: K562; assay: Growth inhibition of human K562 cells; assay type: functional
# [4] = system: BT-474; assay: Induction of mitochondrial membrane potential loss in human BT-474 cells assessed as depolarised cells at 1 uM incubated for 24 hrs by […] staining based assay (reference value: 4.18%); assay type: functional
# [5] = system: BT-474; assay: Induction of mitochondrial membrane potential loss in human BT-474 cells assessed as depolarised cells at 0.5 uM incubated for 24 hrs by […] staining based assay (reference value: 4.18%); assay type: functional
# [6] = system: K562; assay: Growth of human K562 cells relative to control
# [7] = system: BT-474; assay: Induction of apoptosis in human BT-474 cells assessed as cellular morphological changes at 0.25 to 1 uM incubated for 24 hrs by AO/EB staining assay; assay type: functional, cell-based; details: dose 0.25-1 µM
# [8] = system: BT-474; assay: Induction of apoptosis in human BT-474 cells assessed as late apoptotic cells at 0.5 uM incubated for 24 hrs by annexin-V/FITC-PI staining assay (reference value: 1.83%); assay type: functional
# [9] = system: HT-29; assay: Growth inhibition of human HT-29 cells; assay type: functional
# [10] = system: BT-474; assay: Induction of apoptosis in human BT-474 cells assessed as cell shrinkage at 0.25 to 1 uM by phase-contrast microscopy; assay type: functional, cell-based; details: dose 0.25-1 µM
# [11] = system: BT-474; assay: Induction of apoptosis in human BT-474 cells assessed as early apoptotic cells at 0.5 uM incubated for 24 hrs by annexin-V/FITC-PI staining assay (reference value: 9.44%); assay type: functional
# [12] = system: BT-474; assay: Induction of apoptosis in human BT-474 cells assessed as fragmented nucleus by measuring bright clue colour at 0.25 to 1 uM incubated for 24 hrs by DAPI staining based fluorescence microscope assay; assay type: functional, cell-based; details: dose 0.25-1 µM
# [13] = system: NCI-H460; assay: Growth of human NCI-H460 cells relative to control
# [14] = system: NCI-H460; assay: Growth inhibition of human NCI-H460 cells; assay type: functional
# [15] = system: SR; assay: Growth inhibition of human SR cells; assay type: functional
# [16] = system: BT-474; assay: Induction of apoptosis in human BT-474 cells assessed as late apoptotic cells at 1 uM incubated for 24 hrs by annexin-V/FITC-PI staining assay (reference value: 1.83%); assay type: functional
# [17] = system: MCF7; assay: Growth of human MCF7 cells relative to control
# [18] = system: BT-474; assay: Induction of apoptosis in human BT-474 cells assessed as viable cells at 1 uM incubated for 24 hrs by annexin-V/FITC-PI staining assay (reference value: 88.49%); assay type: functional; details: read-out: Activity
# [19] = system: SNB-75; assay: Growth of human SNB75 cells relative to control
# [20] = system: BT-474; assay: Induction of mitochondrial membrane potential loss in human BT-474 cells assessed as polarised cells at 0.5 uM incubated for 24 hrs by […] staining based assay (reference value: 93.95%); assay type: functional
# [21] = system: LOX IMVI; assay: Growth of human LOX IMVI cells relative to control
# [22] = system: KM12; assay: Growth inhibition of human KM12 cells; assay type: functional
# [23] = system: BT-474; assay: Induction of ROS production in human BT-474 cells assessed as increase in intracellular ROS level incubated for 24 hrs by DCF-DA staining based assay; assay type: functional, cell-based; details: dose 0.25-1 µM
# [24] = system: BT-474; assay: Induction of mitochondrial membrane potential loss in human BT-474 cells assessed as depolarised cells at 0.25 uM incubated for 24 hrs by […] staining based assay (reference value: 4.18%); assay type: functional
# [25] = system: RPMI-8226; assay: Growth inhibition of human RPMI-8226 cells; assay type: functional
# [26] = system: BT-474; assay: Induction of apoptosis in human BT-474 cells assessed as reduced number of viable cells at 0.25 to 1 uM by phase-contrast microscopy; assay type: functional, cell-based; details: dose 0.25-1 µM
# [27] = system: BT-474; assay: Induction of apoptosis in human BT-474 cells assessed as necrotic cells at 1 uM incubated for 24 hrs by annexin-V/FITC-PI staining assay (reference value: 0.24%); assay type: functional
# [28] = system: SNB-75; assay: Growth inhibition of human SNB75 cells; assay type: functional
# [29] = system: SR; assay: Growth of human SR cells relative to control
# [30] = system: HCT-116; assay: Growth of human HCT-116 cells relative to control
# [31] = system: BT-474; assay: Induction of mitochondrial membrane potential loss in human BT-474 cells assessed as polarised cells at 0.25 uM incubated for 24 hrs by […] staining based assay (reference value: 93.95%); assay type: functional
# [32] = system: HT-29; assay: Growth of human HT-29 cells relative to control
# [33] = system: MCF7; assay: Growth inhibition of human MCF7 cells; assay type: functional
# [34] = system: BT-474; assay: Cytotoxicity against human BT-474 cells assessed as cell growth inhibition by MTT assay; assay type: functional, cell-based
# [35] = system: BT-474; assay: Induction of apoptosis in human BT-474 cells assessed as nuclear shrinkage by measuring bright clue colour at 0.25 to 1 uM incubated for 24 hrs by DAPI staining based fluorescence microscope assay; assay type: functional, cell-based; details: dose 0.25-1 µM
# [36] = system: HCT-116; assay: Growth inhibition of human HCT-116 cells; assay type: functional
# [37] = system: BT-474; assay: Induction of apoptosis in human BT-474 cells assessed as necrotic cells at 0.5 uM incubated for 24 hrs by annexin-V/FITC-PI staining assay (reference value: 0.24%); assay type: functional
# [38] = system: RPMI-8226; assay: Growth of human RPMI-8226 cells relative to control
# [39] = system: BT-474; assay: Induction of apoptosis in human BT-474 cells assessed as viable cells at 0.5 uM incubated for 24 hrs by annexin-V/FITC-PI staining assay (reference value: 88.49%); assay type: functional; details: read-out: Activity
# [40] = system: LOX IMVI; assay: Growth inhibition of human LOX IMVI cells; assay type: functional
# [41] = system: BT-474; assay: Induction of apoptosis in human BT-474 cells assessed as horseshoe-shaped nuclei by measuring bright clue colour at 0.25 to 1 uM incubated for 24 hrs by DAPI staining based fluorescence microscope assay; assay type: functional, cell-based; details: dose 0.25-1 µM
# [42] = system: BT-474; assay: Induction of apoptosis in human BT-474 cells assessed as pyknotic and chromatin condensation by measuring bright clue colour at 0.25 to 1 uM incubated for 24 hrs by DAPI staining based fluorescence microscope assay; assay type: functional, cell-based; details: dose 0.25-1 µM
# [43] = system: MDA-MB-435; assay: Growth of human MDA-MB-435 cells relative to control
# [44] = system: BT-474; assay: Induction of mitochondrial membrane potential loss in human BT-474 cells assessed as polarised cells at 1 uM incubated for 24 hrs by […] staining based assay (reference value: 93.95%); assay type: functional
# [45] = system: KM12; assay: Growth of human KM12 cells relative to control
# [46] = system: BT-474; assay: Induction of apoptosis in human BT-474 cells assessed as […] at 0.25 to 1 uM by phase-contrast microscopy; assay type: functional, cell-based; details: dose 0.25-1 µM
# [47] = system: BT-474; assay: Inhibition of colony formation in human BT-474 cells by clonogenic assay; assay type: functional, cell-based
# [48] = system: MDA-MB-435; assay: Growth inhibition of human MDA-MB-435 cells; assay type: functional
# [49] = read-out: LC50 (the source's name)
smiles,measurement,setting,value
Brc1ccc(COc2ccc(Nc3ncnc4onc(-c5ccccc5)c34)cc2)cc1,Activity,[1],Active
COc1ccc(Nc2ncnc3onc(-c4ccccc4)c23)cc1,Activity,[1],Active
c1ccc(-c2noc3ncnc(Nc4ccc(Oc5ccc6ccccc6c5)cc4)c23)cc1,Activity,[1],Active
Clc1ccccc1Oc1ccc(Nc2ncnc3onc(-c4ccccc4)c23)cc1,Activity,[1],Active
Fc1ccc(Oc2ccc(Nc3ncnc4onc(-c5ccccc5)c34)cc2)cc1,Activity,[1],Active
Fc1ccccc1Nc1ncnc2onc(-c3ccccc3)c12,Activity,[1],Active
Clc1ccc(Oc2ccc(Nc3ncnc4onc(-c5ccccc5)c34)cc2)c(Cl)c1,Activity,[1],Active
CCOC(=O)c1ccc(Oc2ccc(Nc3ncnc4onc(-c5ccccc5)c34)cc2)cc1,Activity,[1],Active
COc1ccc(COc2ccc(Nc3ncnc4onc(-c5ccccc5)c34)cc2)cc1,Activity,[1],Active
Fc1cccc(COc2ccc(Nc3ncnc4onc(-c5ccccc5)c34)cc2)c1,Activity,[2],27.93%
same,GI50,[3],95 nM
same,TGI,[3],> 100000 nM
same,CC50,[3]; [49],> 100000 nM
same,Activity,[4],18.83%
same,Activity,[1],Active
same,Activity,[5],16.12%
same,"growth, % of control",[6],12.08%
same,Activity,[7],Active
same,Activity,[8],6.9%
same,GI50,[9],53 nM
same,TGI,[9],11600 nM
same,CC50,[9]; [49],> 100000 nM
same,Activity,[10],Active
same,Activity,[11],27.1%
same,Activity,[12],Active
same,"growth, % of control",[13],2.61%
same,GI50,[14],50 nM
same,TGI,[14],28400 nM
same,CC50,[14]; [49],> 100000 nM
same,GI50,[15],67 nM
same,TGI,[15],> 100000 nM
same,CC50,[15]; [49],> 100000 nM
same,Activity,[16],7.19%
same,"growth, % of control",[17],14.05%
same,viability at 1 µM,[18],63.3%
same,"growth, % of control",[19],-34.93%
same,Activity,[20],78.84%
same,"growth, % of control",[21],23.07%
same,GI50,[22],80 nM
same,TGI,[22],14800 nM
same,CC50,[22]; [49],> 100000 nM
same,Activity,[23],Dose-Dependent Effect
same,Activity,[24],5.5%
same,GI50,[25],58 nM
same,TGI,[25],> 100000 nM
same,CC50,[25]; [49],> 100000 nM
same,Activity,[26],Active
same,Activity,[27],1.55%
same,GI50,[28],26 nM
same,TGI,[28],386 nM
same,CC50,[28]; [49],> 100000 nM
same,"growth, % of control",[29],26.06%
same,"growth, % of control",[30],8.15%
same,Activity,[31],92.79%
same,"growth, % of control",[32],3.86%
same,GI50,[33],37 nM
same,TGI,[33],> 100000 nM
same,CC50,[33]; [49],> 100000 nM
same,IC50,[34],640 nM
same,Activity,[35],Active
same,GI50,[36],58 nM
same,TGI,[36],> 100000 nM
same,CC50,[36]; [49],> 100000 nM
same,Activity,[37],1.06%
same,"growth, % of control",[38],12.49%
same,viability at 0.5 µM,[39],64.9%
same,GI50,[40],949 nM
same,TGI,[40],> 100000 nM
same,CC50,[40]; [49],> 100000 nM
same,Activity,[41],Active
same,Activity,[42],Active
same,"growth, % of control",[43],-54.67%
same,Activity,[44],75.08%
same,"growth, % of control",[45],9.57%
same,Activity,[46],Active
same,Activity,[47],Dose-Dependent Effect
same,GI50,[48],32 nM
Clc1cccc(Nc2ncnc3onc(-c4ccccc4)c23)c1,Activity,[1],Active
Cc1ccc(COc2ccc(Nc3ncnc4onc(-c5ccccc5)c34)cc2)cc1,Activity,[1],Active
c1ccc(-c2noc3ncnc(Nc4ccc(N5CCOCC5)cc4)c23)cc1,Activity,[1],Active
Fc1ccc(COc2ccc(Nc3ncnc4onc(-c5ccccc5)c34)cc2)cc1,Activity,[1],Active
c1ccc(Nc2ncnc3onc(-c4ccccc4)c23)cc1,Activity,[1],Active
Clc1ccc(COc2ccc(Nc3ncnc4onc(-c5ccccc5)c34)cc2)c(Cl)c1,Activity,[1],Active
c1ccc(-c2noc3ncnc(Nc4ccc(Oc5ccccc5-c5ccnc6ccccc56)cc4)c23)cc1,Activity,[1],Active
Brc1ccc(Oc2ccc(Nc3ncnc4onc(-c5ccccc5)c34)cc2)cc1,Activity,[1],Active
c1ccc(Oc2ccc(Nc3ncnc4onc(-c5ccccc5)c34)cc2)cc1,Activity,[1],Active
FC(F)(F)Oc1ccc(Oc2ccc(Nc3ncnc4onc(-c5ccccc5)c34)cc2)cc1,Activity,[1],Active
O=C(O)CNc1ncnc2onc(-c3ccccc3)c12,Activity,[1],Active
c1ccc(-c2noc3ncnc(Nc4ccc(Oc5cccc6ccccc56)cc4)c23)cc1,Activity,[1],Active
Clc1ccc(COc2ccc(Nc3ncnc4onc(-c5ccccc5)c34)cc2)cc1,Activity,[1],Active
COc1cccc(COc2ccc(Nc3ncnc4onc(-c5ccccc5)c34)cc2)c1,Activity,[1],Active
Clc1cccc(COc2ccc(Nc3ncnc4onc(-c5ccccc5)c34)cc2)c1,Activity,[1],Active
c1ccc(COc2ccc(Nc3ncnc4onc(-c5ccccc5)c34)cc2)cc1,Activity,[1],Active
Cc1cc(C)cc(Oc2ccc(Nc3ncnc4onc(-c5ccccc5)c34)cc2)c1,Activity,[1],Active
O=c1cc(Cc2ccc(Oc3ccc(Nc4ncnc5onc(-c6ccccc6)c45)cc3)cc2)c2ccccc2o1,Activity,[1],Active
